# Experimental data reported in ChEMBL document CHEMBL1130624, “In vitro inhibitory effects of DNA topoisomerase II by fernane-type triterpenoids isolated from a Euphorbia genus” (Bioorg Med Chem Lett, 1998).
# The source made the active and inactive calls. No cut-off for these calls is given here.
# Legend:
# Type in all cases: protein assay
# [1] = molecular target: T1, DNA topoisomerase II (Homo sapiens) (UniProt P11388+Q02880); experiment: Compound was tested in vitro for inhibitory effect on DNA topoisomerase II activity at a concentration of 100 uM; No inhibition
# [2] = molecular target: T1, DNA topoisomerase II (Homo sapiens); experiment: Compound was tested in vitro for inhibitory effect on DNA topoisomerase II activity at a concentration of 50 uM; Slight inhibition
# [3] = molecular target: T1, DNA topoisomerase II (Homo sapiens); experiment: Compound was tested in vitro for inhibitory effect on DNA topoisomerase II activity at a concentration of 25 uM; No inhibition
# [4] = molecular target: T1, DNA topoisomerase II (Homo sapiens); experiment: Compound was tested in vitro for inhibitory effect on DNA topoisomerase II activity at a concentration of 3.2 uM; No inhibition
# [5] = molecular target: T1, DNA topoisomerase II (Homo sapiens); experiment: Compound was tested in vitro for inhibitory effect on DNA topoisomerase II activity at a concentration of 12.5 uM; No inhibition
# [6] = molecular target: T1, DNA topoisomerase II (Homo sapiens); experiment: Compound was tested in vitro for inhibitory effect on DNA topoisomerase II activity at a concentration of 100 uM; Evidence inhibition
# [7] = molecular target: T1, DNA topoisomerase II (Homo sapiens); experiment: Compound was tested in vitro for inhibitory effect on DNA topoisomerase II activity at a concentration of 6.3 uM; No inhibition
# [8] = molecular target: T1, DNA topoisomerase II (Homo sapiens); experiment: Compound was tested in vitro for inhibitory effect on DNA topoisomerase II activity at a concentration of 12.5 uM; Evidence inhibition
# [9] = molecular target: T1, DNA topoisomerase II (Homo sapiens); experiment: Compound was tested in vitro for inhibitory effect on DNA topoisomerase II activity at a concentration of 6.3 uM; Slight inhibition
# [10] = molecular target: T1, DNA topoisomerase II (Homo sapiens); experiment: Compound was tested in vitro for inhibitory effect on DNA topoisomerase II activity at a concentration of 100 uM; […]
# [11] = molecular target: T1, DNA topoisomerase II (Homo sapiens); experiment: Compound was tested in vitro for inhibitory effect on DNA topoisomerase II activity at a concentration of 25 uM; […]
# [12] = molecular target: T1, DNA topoisomerase II (Homo sapiens); experiment: Compound was tested in vitro for inhibitory effect on DNA topoisomerase II activity at a concentration of 50 uM; […]
smiles,measurement,setting,value
CC(C)[C@H]1CC[C@@H]2[C@]1(C)CC[C@]1(C)C3=C(C(=O)C[C@@]21C)[C@@]1(C)CC[C@H](O)C(C)(C)C1C[C@@H]3O (some centres undefined),Activity,[1],inactive
CC(C)[C@H]1CC[C@@H]2[C@]1(C)CC[C@]1(C)C3=C(C(=O)C[C@@]21C)[C@@]1(C)CC[C@H](O)C(C)(C)C1CC3=O (some centres undefined),Activity,[1],inactive
COc1cc([C@@H]2c3cc4c(cc3[C@@H](O[C@@H]3O[C@@H]5CO[C@@H](C)O[C@H]5[C@H](O)[C@H]3O)[C@H]3COC(=O)[C@H]23)OCO4)cc(OC)c1O,Activity,[2],Slight inhibition
same,Activity,[3],inactive
same,Activity,[4],inactive
same,Activity,[5],inactive
same,Activity,[6],Evidence inhibition
same,Activity,[7],inactive
C=C(C)[C@@H]1CC[C@@H]2C(=CC[C@@]3(C)[C@@H]4CC[C@H](C(C)C)[C@@]4(C)CC[C@]23C)[C@@]1(C)CCC(=O)O,Activity,[8],Evidence inhibition
same,Activity,[9],Slight inhibition
same,Activity,[10],Slight inhibition
same,Activity,[4],inactive
same,Activity,[11],Slight inhibition
same,Activity,[12],Slight inhibition
CC(C)[C@H]1CC[C@@H]2[C@]1(C)CC[C@]1(C)C3=C([C@H](O)C[C@@]21C)[C@@]1(C)CC[C@H](O)C(C)(C)C1CC3=O (some centres undefined),Activity,[1],inactive
C=C(C)[C@@H]1CC[C@@H]2C(=CC[C@@]3(C)[C@@H]4CC[C@H](C(C)C)[C@@]4(C)CC[C@]23C)[C@@]1(C)CCCO,Activity,[8],Evidence inhibition
same,Activity,[9],Slight inhibition
same,Activity,[10],Slight inhibition
same,Activity,[4],inactive
same,Activity,[11],Slight inhibition
same,Activity,[12],Slight inhibition
C=C(C)[C@@H]1CC[C@@H]2C(=CC[C@@]3(C)[C@@H]4CC[C@H](C(C)C)[C@@]4(C)CC[C@]23C)[C@@]1(C)CCC(=O)OC,Activity,[1],inactive
C=C(C)[C@@H]1CC[C@@H]2C(=CC[C@@]3(C)[C@@H]4CC[C@H](C(C)C)[C@@]4(C)CC[C@]23C)[C@@]1(C)CCC(=O)OCc1ccccc1,Activity,[2],Slight inhibition
same,Activity,[3],inactive
same,Activity,[4],inactive
same,Activity,[5],inactive
same,Activity,[6],Evidence inhibition
same,Activity,[7],inactive
CC(C)[C@H]1CC[C@@H]2[C@]1(C)CC[C@]1(C)C3=C(CC[C@@]21C)[C@@]1(C)CC[C@H](O)C(C)(C)C1CC3 (some centres undefined),Activity,[1],inactive
